Reference: patent publication US20030083483A1, “Molecular interaction sites of vimentin RNA and methods of modulating the same” (priority 1999, published 2003)
Values after ≈ are worked out from the molar mass of the structure shown.

What was measured:
E. coli = experiment: high throughput screening assay for antibacterial activity; type: cell-based; details: Escherichia coli; against E. coli; crude compounds, identical activity with analytically pure material; read-out: minimum inhibitory concentrations (MIC's)
From the text: This activity was verified by manual solution synthesis of analytically pure material as described in Example 6 above, which had identical activity.

[1] = tested on: 27-mer model RNA sequence of the 16S A-site; experiment: MASS mass spectrometry binding assay with 16S A-site 27-mer RNA; set-up: species or system prokaryotic; details: for complexes detected with the 16S A site 27mer RNA: ESI-FTICR, mixture of five aminoglycosides, 16S and 18S targets simultaneously
Procedure: The compounds are screened for binding affinity using MASS or conventional high-throughput functional screens. The best scoring compounds from docking a 256-member library against the 16S A-site ribosomal RNA structure are shown in the table 5 below. The MASS assay was performed with the 27-mer model RNA sequence of the 16S A-site whose NMR structure has been determined. The transcription/translation assay was based on expression of a luciferase plasmid.
A preferred first step of MASS screening involves mixing the RNA target (or targets) with a combinatorial library of ligands designed to bind to a specific site on the target molecule(s). Specific noncovalent complexes formed in solution between the target(s) and any library members are transferred into the gas phase and ionized by ESI. As described herein, from the measured mass difference between the complex and the free target, the identity of the binding ligand can be determined. The dissociation constant of the complex can be determined in two ways: if a ligand with a known binding affinity for the target is available, a relative Kd can be measured by using the known ligand as an internal control and measuring the abundance of the unknown complex to the abundance of the control, alternatively, if no internal control is available, Kd's can be determined by making a series of measurements at different ligand concentrations and deriving a Kd value from the “titration” curve.
In a direct determination of solution phase dissociation constants (Kd's) by mass spectrometry, ESI-MS measurements of a solution containing a fixed concentration of RNA at different concentrations of ligand were obtained. By measuring the ratio of bound:unbound RNA at varying ligand concentrations, the Kd was determined by 1/slope of the “titration curve”. The MS derived value of 110 nM is in good agreement with previously reported literature value of 200 nM.
All mass spectrometry experiments were performed using an Apex II 70e electrospray ionization Fourier transform ion cyclotron resonance mass spectrometer (Bruker Daltonics, Billerica) employing an actively shielded 7 tesla superconducting magnet. RNA solutions were prepared in 50 mM NH4OAc (pH 7), mixed 1:1 v:v with isopropanol to aid desolvation, and infused at a rate of […] using a syringe pump. Ions were formed in a modified electrospray source (Analytica, Branford) employing an off axis, grounded electrospray probe positioned ca. 1.5 cm from the metalized terminus of the glass desolvation capillary biased at 5000 V. A counter-current flow of dry […] gas heated to 225C was employed to assist in the desolvation process. Ions were accumulated in an external ion reservoir comprised of an RF-only hexapole, a skimmer cone, and an auxiliary electrode for 1000 ms prior to transfer into the trapped ion cell for mass analysis. Each spectrum was the result of the coaddition of 16 transients comprised of […] acquired over a 90,909 kHz bandwidth resulting in a 700 ms detection interval. All aspects of pulse sequence control, data acquisition, and post acquisition processing were performed using a Bruker Daltonics datastation running XMASS version 4.0 on a Silicon Graphics (San Jose, Calif.) R5000 computer.
Mass spectrometry experiments were performed in order to detect complex formation between a library containing five aminoglycosides (Sisomicin (Sis), Tobramycin (Tob), Bekanomycin (Bek), Paromomycin (PM), and Livodomycin (LV)) and two RNA targets simultaneously. Signals from the (M-5H+)^5− charge states of free 16S and 18S RNAs are detected at m/z 1801.515 and 1868.338, respectively. The mass spectrometric assay reproduces the known solution binding properties of aminoglycosides to the 16S A site model and an 18S A site model with a neutral mass linker. Consistent with the higher binding affinity of theses aminoglycosides for the 16S A-site relative to the 18S A-site, aminoglycoside complexes are observed only with the 16S rRNA target. […]

[2] = general statement; cited from earlier work
[3] = general statement; cited from earlier work; remark: listed apart in the source
18S A site model = experiment: ESI-FTICR mass spectrometric complex detection with 18S A-site model RNA; type: binding, eukaryotic; details: mixture of five aminoglycosides, 16S and 18S targets simultaneously
Procedure: Paromomycin, lividomycin (MW=761.354 Da), sisomicin (MW=447.269 Da), tobramycin (MW=467.2591 Da), and bekanamycin (MW=483.254 Da) were obtained from Sigma (St. Louis, Mo.) and ICN (Costa Mesa, Calif.) and were dissolved to generate 10 mM stock solutions. 2′ methoxy analogs of RNA constructs representing the prokaryotic (16S) rRNA and eukaryotic (18S) rRNA A-site were synthesized in house and precipitated twice from 1 M ammonium acetate following deprotection with ammonia (pH 8.5). The mass-tagged constructs contained an 18-atom mass tag (C12H2509) attached to the 5′-terminus of the RNA oligomer through a phosphodiester linkage.
All mass spectrometry experiments were performed using an Apex II 70e electrospray ionization Fourier transform ion cyclotron resonance mass spectrometer (Bruker Daltonics, Billerica) employing an actively shielded 7 tesla superconducting magnet. […]
Mass spectrometry experiments were performed in order to detect complex formation between a library containing five aminoglycosides (Sisomicin (Sis), Tobramycin (Tob), Bekanomycin (Bek), Paromomycin (PM), and Livodomycin (LV)) and two RNA targets simultaneously. Signals from the (M-5H+)^5− charge states of free 16S and 18S RNAs are detected at m/z 1801.515 and 1868.338, respectively. […]

[4] = tested on: TAR RNA interaction with tat peptide; experiment: disruption of TAR RNA interaction with tat peptide; type: binding, HIV-1
[5] = molecular target: luciferase mRNA containing the TAR RNA structure in the 5′-UTR; experiment: wheat germ lysate translation of luciferase mRNA with TAR in the 5′-UTR; type: biochemical, HIV; details: read-out: concentration reducing translation by 50%
From the text: It is believed that stabilization of mRNA structures near the 5′-cap also could be effected by specific “small” molecules, and that such binding would reduce the translational efficiency of the mRNA. To test this hypothesis, a plasmid was constructed containing the luciferase message behind a 5′-UTR containing a 27-mer RNA construct of the HIV TAR stem-loop bulge whose structure had been determined by NMR. The resulting mRNA could be expressed and capped in a wheat germ lysate translation system supplemented with T7 polymerase following addition of m^7G to the lysate. Insertion of a 9-base leader before the TAR structure (HIVluc+9) enhanced the translational efficiency, presumably by allowing the pre-initiation complex to form. The helicase activity associated with the pre-initiation complex can transiently melt out the TAR RNA structure, and the message is translated.

luciferase mRNA = experiment: wheat germ lysate translation of luciferase mRNA; type: biochemical; details: mRNA without TAR structure
From the text: It is believed that stabilization of mRNA structures near the 5′-cap also could be effected by specific “small” molecules, and that such binding would reduce the translational efficiency of the mRNA. To test this hypothesis, a plasmid was constructed containing the luciferase message behind a 5′-UTR containing a 27-mer RNA construct of the HIV TAR stem-loop bulge whose structure had been determined by NMR.

Which MIC (E. coli) does the source give for `O=C(NO)[C@@H](Cc1ccc2ccccc2c1)NS(=O)(=O)c1ccc(Br)cc1` [Compound 5-n-vi, (2R)-2-(((4-bromophenyl)Sulfonyl)Amino)-3-(2-naphthyl)Propanehydroxamic Acid] here?
The MIC was 3 to 6 µM (≈ 1.35 to 2.7 µg/mL).

Which MIC (E. coli) does the source give for `O=C(NO)[C@@H](Cc1ccc2ccccc2c1)NS(=O)(=O)c1ccc2ccccc2c1` [Compound 5-n-ii, (2R)-3-(2-naphthyl)-2-((2-naphthylsulfonyl)Amino)Propanehydroxamic Acid] here?
The MIC was 0.7 to 1.5 µM (≈ 0.294 to 0.631 µg/mL).

Which “complexes detected with the 16S A site 27mer RNA” value (from here on “complexes detected”) [1] does the source give for `CN[C@@H]1[C@@H](O)[C@@H](O[C@@H]2[C@@H](O)[C@H](O[C@H]3OC(CN)=CC[C@H]3N)[C@@H](N)C[C@H]2N)OC[C@]1(C)O` [sisomycin, sisomicin] here?
The value was “Weaker complexes”.

Which toxicity [2] does the source give for `C=C(NC(=O)C(=C)NC(=O)c1csc(C2=N[C@@H]3c4csc(n4)[C@H]4NC(=O)c5csc(n5)[C@H]([C@](C)(O)[C@@H](C)O)NC(=O)[C@H]5CSC(=N5)/C(=C/C)NC(=O)[C@H]([C@@H](C)O)NC(=O)c5csc(n5)[C@]3(CC2)NC(=O)[C@H](C)NC(=O)C(=C)NC(=O)[C@H](C)NC(=O)[C@H]([C@@H](C)CC)N[C@@H]2C=Cc3c([C@H](C)O)cc(nc3[C@H]2O)C(=O)O[C@@H]4C)n1)C(N)=O` [thiostrepton] here?
Its toxicity is “relatively high”.

What about the solubility [3] of the same molecule?
Its solubility is “very poor”.

With `NC[C@@H]1O[C@H](O[C@H]2[C@@H](O)[C@H](O[C@@H]3[C@@H](O)[C@H](N)C[C@H](N)[C@H]3O[C@H]3O[C@H](CO)[C@@H](O)C[C@H]3N)O[C@@H]2CO)[C@H](N)[C@@H](O)[C@@H]1O[C@H]1O[C@H](CO)[C@@H](O)[C@H](O)[C@@H]1O` [lividomycin] as the molecule, how does the “complexes with the 18S A site model” value (18S A site model) read?
The value was “absence”.

And the Kd ([1]; 16S A site 27mer, ESI-MS titration, read-out: KD measured by mass spectrometry)?
The Kd was 0.028 µM.

And the “complexes detected” value [1]?
The value was “High affinity complexes”.

For `NC[C@H]1O[C@H](O[C@H]2[C@H](O)[C@@H](O[C@H]3O[C@H](CO)[C@@H](O)[C@H](N)[C@H]3O)[C@H](N)C[C@@H]2N)[C@H](N)[C@@H](O)[C@@H]1O` [bekamycin, bekanamycin], which “complexes detected” value [1] is on record?
The value was “Weaker complexes”.

Which “complexes detected” value [1] does the source give for `NC[C@H]1O[C@H](O[C@H]2[C@H](O)[C@@H](O[C@H]3O[C@H](CO)[C@@H](O)[C@H](N)[C@H]3O)[C@H](N)C[C@@H]2N)[C@H](N)C[C@@H]1O` [tobramycin] here?
The value was “Weaker complexes”.

With `CNc1ccc(NCCO)c2c1C(=O)c1ccccc1C2=O` [ACD 00001199] as the molecule, how does the “concentration at which binding to TAR RNA disrupts the interaction with tat peptide” value [4] read?
The value was 1 µM.

And the IC50 values ([4]; in words, assay not stated, TAR ligands)?
Its IC50 values is “low”.

What about the IC50 [5] of the same molecule?
The IC50 was 50 µM.

What about the “inhibition of translation of the luciferase mRNA” value (luciferase mRNA) of the same molecule?
The value was “some inhibition of translation at very high concentrations”.
